{"source": "patent US11827657B2", "about": "“Boron containing pyrazole compounds, compositions comprising them, methods and uses thereof” (BOEHRINGER INGELHEIM ANIMAL HEALTH USA INC., priority 2020, dated 2023)", "target": "JAK1 (Homo sapiens, UniProt P23458)", "sequence (P23458 whole entry, species assumed)": "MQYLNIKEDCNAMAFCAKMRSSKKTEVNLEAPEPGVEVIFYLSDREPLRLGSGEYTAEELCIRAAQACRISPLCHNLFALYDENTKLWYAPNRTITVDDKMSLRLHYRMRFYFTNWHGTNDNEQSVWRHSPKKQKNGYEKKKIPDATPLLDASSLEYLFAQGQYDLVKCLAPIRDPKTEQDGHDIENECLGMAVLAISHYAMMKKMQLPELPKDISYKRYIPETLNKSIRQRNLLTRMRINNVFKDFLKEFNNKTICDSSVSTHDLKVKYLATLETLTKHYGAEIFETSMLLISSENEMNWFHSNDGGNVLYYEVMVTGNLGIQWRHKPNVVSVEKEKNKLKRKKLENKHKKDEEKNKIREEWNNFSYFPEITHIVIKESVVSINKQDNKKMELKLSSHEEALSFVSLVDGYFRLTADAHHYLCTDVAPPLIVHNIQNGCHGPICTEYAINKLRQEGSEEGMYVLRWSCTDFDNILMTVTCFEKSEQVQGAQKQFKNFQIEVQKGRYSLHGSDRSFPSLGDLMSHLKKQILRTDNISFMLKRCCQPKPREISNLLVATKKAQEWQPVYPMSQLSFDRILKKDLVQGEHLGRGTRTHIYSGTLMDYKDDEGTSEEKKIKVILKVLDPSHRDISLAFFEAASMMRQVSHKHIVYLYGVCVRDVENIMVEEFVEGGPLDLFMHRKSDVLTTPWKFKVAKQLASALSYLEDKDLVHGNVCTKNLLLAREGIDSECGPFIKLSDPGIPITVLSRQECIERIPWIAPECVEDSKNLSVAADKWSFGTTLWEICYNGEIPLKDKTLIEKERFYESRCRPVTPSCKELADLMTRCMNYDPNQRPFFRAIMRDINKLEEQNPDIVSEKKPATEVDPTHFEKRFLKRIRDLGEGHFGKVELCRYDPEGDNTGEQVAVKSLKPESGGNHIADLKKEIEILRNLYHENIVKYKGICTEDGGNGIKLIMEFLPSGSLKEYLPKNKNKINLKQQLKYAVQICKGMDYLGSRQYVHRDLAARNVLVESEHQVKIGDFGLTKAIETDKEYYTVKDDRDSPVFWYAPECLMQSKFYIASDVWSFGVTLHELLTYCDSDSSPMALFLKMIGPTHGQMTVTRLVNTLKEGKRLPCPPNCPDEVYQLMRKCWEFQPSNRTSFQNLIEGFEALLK", "test": "Biochemical Kinase Assay (JAK), 33P-ATP filter-binding", "conditions": "Biochemical Kinase Inhibition Assay; potency level of IC50; read-out: JAK1 (range)", "how_it_was_run": "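Radiometric filter-binding with 33P-ATP in pH 7.5 Hepes buffer with 10 mM MgCl2 and 1% DMSO. Compound preincubated with kinase and substrate 20 min at room temperature, reaction run 2 h at room temperature, spotted on P81 paper to give IC50.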"}
{"compound": "CC(C)C1=CB(O)Oc2ccc(Nc3nn([C@@H]4COCC[C@H]4C#N)cc3C(N)=O)cc21", "note": "(single isomer, unassigned) [Example 30b, 1-[trans-4-cyanotetrahydro-2H-pyran-3-yl]-3-[(2-hydroxy-4-isopropyl-1,2-benzoxaborinin-6-yl)amino]pyrazole-4-carboxamide]", "values": [{"measurement": "IC50", "value": "< 0.01", "unit": "µM"}]}
{"compound": "CC1=Cc2cc(Nc3nn([C@@H]4CCC[C@H]4C#N)cc3C(N)=O)cc(F)c2OB1O", "note": "(relative stereo) [Example 15, 1-(trans-2-cyanocyclopentyl)-3-[(8-fluoro-2-hydroxy-3-methyl-1,2-benzoxaborinin-6-yl)amino]pyrazole-4-carboxamide]", "values": [{"measurement": "IC50", "value": "< 0.01", "unit": "µM"}]}
{"compound": "CC(C)C1=CB(O)Oc2ccc(Nc3nn(C4COCCC4C#N)cc3C(N)=O)cc21", "note": "(stereo not drawn) [Example 30, 1-[trans-4-cyanotetrahydro-2H-pyran-3-yl]-3-[(2-hydroxy-4-isopropyl-1,2-benzoxaborinin-6-yl)amino]pyrazole-4-carboxamide]", "values": [{"measurement": "IC50", "value": "< 0.01", "unit": "µM"}]}
{"compound": "N#C[C@@H]1CCOC[C@H]1n1cc(C(N)=O)c(Nc2cc3c(c(C(F)(F)F)c2)OB(O)C=C3)n1", "note": "(single isomer, unassigned) [Example 28b, 1-[trans-4-cyanotetrahydro-2H-pyran-3-yl]-3-[[2-hydroxy-8-(trifluoromethyl)-1,2-benzoxaborinin-6-yl]amino]pyrazole-4-carboxamide]", "values": [{"measurement": "IC50", "value": "< 0.01", "unit": "µM"}]}
{"compound": "N#C[C@@H]1CCOC[C@H]1n1cc(C(N)=O)c(Nc2ccc3c(c2)B(O)OC3)n1", "note": "(single isomer, unassigned) [Example 16b, 1-(trans-4-cyanotetrahydro-2H-pyran-3-yl)-3-((1-hydroxy-1,3-dihydrobenzo[c][1,2]oxaborol-6-yl)amino)-1H-pyrazole-4-carboxamide]", "values": [{"measurement": "IC50", "value": "< 0.01", "unit": "µM"}]}
{"compound": "CC(C)C1=Cc2cc(Nc3nn([C@@H]4CCCC[C@H]4C#N)cc3C(N)=O)ccc2OB1O", "note": "(relative stereo) [Example 49, 1-(trans-2-cyanocyclohexyl)-3-[(2-hydroxy-3-isopropyl-1,2-benzoxaborinin-6-yl)amino]pyrazole-4-carboxamide]", "values": [{"measurement": "IC50", "value": "< 0.01", "unit": "µM"}]}
{"compound": "Cc1cc(Nc2nn(C3COCCC3C#N)cc2C(N)=O)cc2c1B(O)OC2", "note": "(single isomer, unassigned) [Example 6b, 1-[trans-4-cyanotetrahydropyran-3-yl]-3-[(1-hydroxy-7-methyl-3H-2,1-benzoxaborol-5-yl)amino]pyrazole-4-carboxamide (stereoisomer two)]", "values": [{"measurement": "IC50", "value": "0.01 to 0.05", "unit": "µM"}]}
{"compound": "CC(C)C1=CB(O)Oc2ccc(Nc3nn([C@@H]4CCC[C@H]4C#N)cc3C(N)=O)cc21", "note": "(relative stereo) [Example 35, 1-(trans-2-cyanocyclopentyl)-3-[(2-hydroxy-4-isopropyl-1,2-benzoxaborinin-6-yl)amino]pyrazole-4-carboxamide]", "values": [{"measurement": "IC50", "value": "0.01 to 0.05", "unit": "µM"}]}
{"compound": "N#C[C@@H]1CCOC[C@H]1n1cc(C(N)=O)c(Nc2cc3c(c(OC(F)(F)F)c2)OB(O)C=C3)n1", "note": "(single isomer, unassigned) [Example 53b, 1-[trans-4-cyanotetrahydro-2H-pyran-3-yl]-3-[[2-hydroxy-8-(trifluoromethoxy)-1,2-benzoxaborinin-6-yl]amino]pyrazole-4-carboxamide]", "values": [{"measurement": "IC50", "value": "< 0.01", "unit": "µM"}]}
